Experimental findings from patent US20250236639A1, “NEUROACTIVE STEROIDS AND COMPOSITIONS THEREOF” (Sage Therapeutics, Inc., priority 2019, published 2025) are described below.

For this assay, the target named is GABAA receptor. Put plainly: Steroid inhibition of [35S]-TBPS binding, rat brain cortical membranes. Particulars: 3 nM [35S]-TBPS, in the presence of 5 mM GABA. The protocol:
[^35S]-t-Butylbicyclophosphorothionate (TBPS) binding assays using rat brain cortical membranes in the presence of 5 mM GABA has been described (Gee et al, J. Pharmacol. Exp. Ther. 1987, 241, 346-353; Hawkinson et al, Mol. Pharmacol. 1994, 46, 977-985; Lewin, A. H et al., Mol. Pharmacol. 1989, 35, 189-194).
Briefly, cortices are rapidly removed following decapitation of carbon dioxide-anesthetized Sprague-Dawley rats (200-250 g). The cortices are homogenized in 10 volumes of ice-cold 0.32 M sucrose using a glass/teflon homogenizer and centrifuged at 1500×g for 10 min at 4° C. The resultant supernatants are centrifuged at 10,000×g for 20 min at 4° C. to obtain the P2 pellets. The P2 pellets are resuspended in 200 mM NaCl/50 mM Na—K phosphate pH 7.4 buffer and centrifuged at 10,000×g for 10 min at 4° C. This washing procedure is repeated twice and the pellets are resuspended in 10 volumes of buffer. Aliquots ([…]) of the membrane suspensions are incubated with 3 nM [^35S]-TBPS and […] aliquots of test drug dissolved in dimethyl sulfoxide (DMSO) (final 0.5%) in the presence of 5 mM GABA. The incubation is brought to a final volume of 1.0 mL with buffer. Nonspecific binding is determined in the presence of […] and ranged from 15 to 25%. Following a 90 min incubation at room temp, the assays are terminated by filtration through glass fiber filters (Schleicher and Schuell No. 32) using a cell harvester (Brandel) and rinsed three times with ice-cold buffer. Filter bound radioactivity is measured by liquid scintillation spectrometry. Non-linear curve fitting of the overall data for each drug averaged for each concentration is done using Prism (GraphPad). […] The concentration of test compound producing 50% inhibition (IC50) of specific binding and the maximal extent of inhibition (Imax) are determined for the individual experiments with the same model used for the overall data and then the means±SEM.s of the individual experiments are calculated.
Various compounds are or can be screened to determine their potential as modulators of [^35S]-TBPS binding in vitro. These assays are or can be performed in accordance with the above

Molecules are shown by their SMILES.

One may read the IC50 as the midpoint of a concentration-inhibition curve. As to `C[C@@]1(O)CC[C@H]2[C@H](CC[C@@H]3[C@@H]2CC[C@]2(C)[C@@H](C(F)(F)Cn4cc(C#N)cn4)CC[C@@H]32)C1` [Compound 21, 1-(2,2-difluoro-2-((3R,5R,8R,9R,10S,13S,14S,17S)-3-hydroxy-3,13-dimethylhexadecahydro-1H-cyclopenta[a]phenanthren-17-yl)ethyl)-1H-pyrazole-4-carbonitrile], the IC50 is less than 100 nM.
Under `CO[C@@H]1C[C@H]2[C@H](CC[C@@H]3[C@@H]2CC[C@@]2(C)[C@H]3CC[C@@H]2[C@](C)(O)Cn2cc(C#N)cn2)C[C@]1(C)O` [Compound 60, 1-((S)-2-hydroxy-2-((2R,3S,5R,8R,9R,10S,13S,14S,17S)-3-hydroxy-2-methoxy-3,13-dimethylhexadecahydro-1H-cyclopenta[a]phenanthren-17-yl)propyl)-1H-pyrazole-4-carbonitrile] stands less than 100 nM; under `C[C@@]1(O)CC[C@H]2[C@H](CC[C@@H]3[C@@H]2CC[C@]2(C)[C@@H](C4(Cn5cc(C#N)cn5)CC4)CC[C@@H]32)C1` [Compound 39, 1-((1-((3R,5R,8R,9R,10S,13S,14S,17S)-3-hydroxy-3,13-dimethylhexadecahydro-1H-cyclopenta[a]phenanthren-17-yl)cyclopropyl)methyl)-1H-pyrazole-4-carbonitrile], less than 100 nM.
In the case of `C[C@@]1(O)CC[C@H]2[C@H](CC[C@@H]3[C@@H]2CC[C@]2(C)[C@@H](C4(Cn5cc(C#N)cn5)COC4)CC[C@@H]32)C1` [Compound 28, 1-((3-((3R,5R,8R,9R,10S,13S,14S,17S)-3-hydroxy-3,13-dimethylhexadecahydro-1H-cyclopenta[a]phenanthren-17-yl)oxetan-3-yl)methyl)-1H-pyrazole-4-carbonitrile], the IC50 is less than 100 nM.
In the case of `CCC[C@@]1(O)CC[C@H]2[C@H](CC[C@@H]3[C@@H]2CC[C@@]2(C)[C@H]3CC[C@@H]2[C@@](C)(Cn2cc(C#N)cn2)OC)C1` [Compound 36, 1-((S)-2-((3R,5R,8R,9R,10S,13S,14S,17S)-3-hydroxy-13-methyl-3-propylhexadecahydro-1H-cyclopenta[a]phenanthren-17-yl)-2-methoxypropyl)-1H-pyrazole-4-carbonitrile], the IC50 was 100 to 1000 nM.
Under `CCC[C@@]1(O)CC[C@@]2(C)[C@H](CC[C@@H]3[C@@H]2CC[C@@]2(C)[C@H]3CC[C@@H]2[C@](C)(O)Cn2cc(C#N)cn2)C1` [Compound 26, 1-((S)-2-hydroxy-2-((3R,5R,8R,9S,10S,13S,14S,17S)-3-hydroxy-10,13-dimethyl-3-propylhexadecahydro-1H-cyclopenta[a]phenanthren-17-yl)propyl)-1H-pyrazole-4-carbonitrile] stands less than 100 nM.
As to `COC[C@@H]1C[C@H]2[C@H](CC[C@@H]3[C@@H]2CC[C@@]2(C)[C@H]3CC[C@@H]2[C@@](C)(O)Cn2cc(C#N)cn2)C[C@]1(C)O` [Compound 59A, 1-((R)-2-hydroxy-2-((2S,3S,5R,8R,9R,10S,13S,14S,17S)-3-hydroxy-2-(methoxymethyl)-3,13-dimethylhexadecahydro-1H-cyclopenta[a]phenanthren-17-yl)propyl)-1H-pyrazole-4-carbonitrile], the IC50 lay within 100 to 1000 nM.
For `CC(C)(Cn1cc(C#N)cn1)[C@H]1CC[C@H]2[C@@H]3CC[C@@H]4C[C@](C)(O)CC[C@@H]4[C@H]3CC[C@]12C` [Compound 41, 1-(2-((3R,5R,8R,9R,10S,13S,14S,17S)-3-hydroxy-3,13-dimethylhexadecahydro-1H-cyclopenta[a]phenanthren-17-yl)-2-methylpropyl)-1H-pyrazole-4-carbonitrile], the IC50 was less than 100 nM.
As for `CC(=O)c1cnn(C[C@@](C)(O)[C@H]2CC[C@H]3[C@@H]4CC[C@@H]5C[C@](C)(O)CC[C@@H]5[C@H]4CC[C@@]32C)c1` [Compound 31, 1-(1-((S)-2-hydroxy-2-((3R,5R,8R,9R,10S,13S,14S,17S)-3-hydroxy-3,13-dimethylhexadecahydro-1H-cyclopenta[a]phenanthren-17-yl)propyl)-1H-pyrazol-4-yl)ethanone], the IC50 is less than 100 nM.
Under `CC[C@@]1(O)CC[C@H]2[C@@H](CC[C@@H]3[C@@H]2CC[C@@]2(C)[C@H]3CC[C@@H]2[C@@](C)(O)Cn2cc(C#N)cn2)C1` [Compound 14, 1-((R)-2-((3R,5S,8R,9R,10S,13S,14S,17S)-3-ethyl-3-hydroxy-13-methylhexadecahydro-1H-cyclopenta[a]phenanthren-17-yl)-2-hydroxypropyl)-1H-pyrazole-4-carbonitrile] stands no less than 1000 nM; under `CC[C@@]1(O)CC[C@H]2[C@@H](CC[C@@H]3[C@@H]2CC[C@@]2(C)[C@H]3CC[C@@H]2[C@](C)(O)Cn2cc(C#N)cn2)C1` [Compound 13, 1-((S)-2-((3R,5S,8R,9R,10S,13S,14S,17S)-3-ethyl-3-hydroxy-13-methylhexadecahydro-1H-cyclopenta[a]phenanthren-17-yl)-2-hydroxypropyl)-1H-pyrazole-4-carbonitrile], 100 to 1000 nM.
Consider `COC[C@@]1(O)CC[C@H]2[C@@H](CC[C@@H]3[C@@H]2CC[C@@]2(C)[C@H]3CC[C@@H]2[C@](C)(O)Cn2cc(C#N)cn2)C1` [Compound 19, 1-((S)-2-hydroxy-2-((3R,5S,8R,9R,10S,13S,14S,17S)-3-hydroxy-3-(methoxymethyl)-13-methylhexadecahydro-1H-cyclopenta[a]phenanthren-17-yl)propyl)-1H-pyrazole-4-carbonitrile], for which the IC50 is less than 100 nM.
Under `C[C@@]1(O)CC[C@H]2[C@H](CC[C@@H]3[C@@H]2CC[C@@]2(C)[C@H]3CC[C@@H]2[C@@](C)(O)Cn2cc(C#N)cn2)C1` [Compound 1, 1-((R)-2-hydroxy-2-((3R,5R,8R,9R,10S,13S,14S,17S)-3-hydroxy-3,13-dimethylhexadecahydro-1H-cyclopenta[a]phenanthren-17-yl)propyl)-1H-pyrazole-4-carbonitrile] stands less than 100 nM.
Under `CCC[C@@]1(O)CC[C@H]2[C@H](CC[C@@H]3[C@@H]2CC[C@@]2(C)[C@H]3CC[C@@H]2[C@@](C)(O)Cn2cc(C#N)cn2)C1` [Compound 8, 1-((R)-2-hydroxy-2-((3R,5R,8R,9R,10S,13S,14S,17S)-3-hydroxy-13-methyl-3-propylhexadecahydro-1H-cyclopenta[a]phenanthren-17-yl)propyl)-1H-pyrazole-4-carbonitrile] stands 100 to 1000 nM; under `COC[C@@]1(O)CC[C@@]2(C)[C@H](CC[C@@H]3[C@@H]2CC[C@@]2(C)[C@H]3CC[C@@H]2[C@@](C)(Cn2cc(C#N)cn2)OC)C1` [Compound 54, 1-((S)-2-((3R,5R,8R,9S,10S,13S,14S,17S)-3-hydroxy-3-(methoxymethyl)-10,13-dimethylhexadecahydro-1H-cyclopenta[a]phenanthren-17-yl)-2-methoxypropyl)-1H-pyrazole-4-carbonitrile], 100 to 1000 nM.
With `CCC[C@@]1(O)CC[C@@]2(C)[C@H](CC[C@@H]3[C@@H]2CC[C@@]2(C)[C@H]3CC[C@@H]2[C@@](C)(O)Cn2cc(C#N)cn2)C1` [Compound 27, 1-((R)-2-hydroxy-2-((3R,5R,8R,9S,10S,13S,14S,17S)-3-hydroxy-10,13-dimethyl-3-propylhexadecahydro-1H-cyclopenta[a]phenanthren-17-yl)propyl)-1H-pyrazole-4-carbonitrile], the half-maximal inhibitory concentration (IC50) fell in the range of 100 to 1000 nM.
Under `COC[C@@]1(O)CC[C@H]2[C@H](CC[C@@H]3[C@@H]2CC[C@]2(C)[C@@H](C(F)(F)Cn4cc(C#N)cn4)CC[C@@H]32)C1` [Compound 38, 1-(2,2-difluoro-2-((3R,5R,8R,9R,10S,13S,14S,17S)-3-hydroxy-3-(methoxymethyl)-13-methylhexadecahydro-1H-cyclopenta[a]phenanthren-17-yl)ethyl)-1H-pyrazole-4-carbonitrile] stands less than 100 nM; under `COC[C@H]1C[C@H]2[C@H](CC[C@@H]3[C@@H]2CC[C@@]2(C)[C@H]3CC[C@@H]2[C@@](C)(O)Cn2cc(C#N)cn2)C[C@]1(C)O` [Compound 59, 1-((R)-2-hydroxy-2-((2R,3S,5R,8R,9R,10S,13S,14S,17S)-3-hydroxy-2-(methoxymethyl)-3,13-dimethylhexadecahydro-1H-cyclopenta[a]phenanthren-17-yl)propyl)-1H-pyrazole-4-carbonitrile], 100 to 1000 nM.
